Data published in ChEMBL document CHEMBL5143688, “A kind of HIV-1 protease inhibitors containing phenols with antiviral activity against DRV-resistant variants” (Bioorg Med Chem, 2022).

Tested on: Human immunodeficiency virus 1
Experiment: Antiviral activity against HIV1 NL4-3 VSV-G pseudotyped virus infected in human SUP-T1 cells assessed as inhibition of early stage viral production at 10 uM measured after 48 hrs by luciferase assay relative to control
Assay type: functional
Conditions: Human immunodeficiency virus 1, NL4-3, SUP-T1

Row | Compound | inhibition at 10 µM
1 | CC(C)CN(C[C@@H](O)[C@H](Cc1ccccc1)NC(=O)c1cc(O)cc(O)c1)S(=O)(=O)c1ccc(F)cc1 | 2.6%
2 | CC(C)CN(C[C@@H](O)[C@H](Cc1ccccc1)NC(=O)c1ccc(O)c(O)c1)S(=O)(=O)c1ccc(F)cc1 | 12.5%

Tested on: Human immunodeficiency virus 1
Experiment: Antiviral activity against HIV1 NL4-3 VSV-G pseudotyped virus infected in human SUP-T1 cells assessed as inhibition of late stage viral production at 100 nM pretreated for 48 hrs followed by viral infection and measured after 48 hrs by luciferase assay relative to control
Assay type: functional
Conditions: Human immunodeficiency virus 1, NL4-3, SUP-T1, time 96 hrs

Row | Compound | inhibition at 0.1 µM
3 | CC(C)CN(C[C@@H](O)[C@H](Cc1ccccc1)NC(=O)O[C@H]1CO[C@H]2OCC[C@H]21)S(=O)(=O)c1ccc(N)cc1 | 100%

Target: Human immunodeficiency virus type 1 protease (Human immunodeficiency virus 1, UniProt Q72874)
Experiment: Inhibition of HIV1 protease expressed in Escherichia coli using Arg-Glu (EDANS)-Ser-Gln-Asn-Tyr-Pro-Ile-Val-Gln-Lys(DABCYL)-Arg as substrate preincubated for 20 to 30 mins followed by substrate addition and measured for 10 mins by FRET assay
Conditions: not given

Row | Compound | IC50
4 | CC(C)CN(C[C@@H](O)[C@H](Cc1ccccc1)NC(=O)c1ccc(Cl)cc1O)S(=O)(=O)c1ccc([N+](=O)[O-])cc1 | 9.99 nM
5 | CC(C)CN(C[C@@H](O)[C@H](Cc1ccccc1)NC(=O)c1ccc(Cl)cc1O)S(=O)(=O)c1ccc(F)cc1 | 6.94 nM
6 | COc1ccc(C(=O)N[C@@H](Cc2ccccc2)[C@H](O)CN(CC(C)C)S(=O)(=O)c2ccc([N+](=O)[O-])cc2)c(O)c1 | 12.7 nM
7 | CC(C)CN(C[C@@H](O)[C@H](Cc1ccccc1)NC(=O)c1cc(O)cc(O)c1)S(=O)(=O)c1ccc([N+](=O)[O-])cc1 | 0.065 nM
8 | CC(C)CN(C[C@@H](O)[C@H](Cc1ccccc1)NC(=O)c1cc(O)c(O)c(O)c1)S(=O)(=O)c1ccc(C(F)(F)F)cc1 | 0.33 nM
9 | CC(C)CN(C[C@@H](O)[C@H](Cc1ccccc1)NC(=O)c1cc(O)cc(O)c1)S(=O)(=O)c1ccc(F)cc1 | 0.021 nM
10 | CC(C)CN(C[C@@H](O)[C@H](Cc1ccccc1)NC(=O)c1ccccc1O)S(=O)(=O)c1ccc(C(F)(F)F)cc1 | 23 nM
11 | COc1ccc(C(=O)N[C@@H](Cc2ccccc2)[C@H](O)CN(CC(C)C)S(=O)(=O)c2ccc(C(F)(F)F)cc2)c(O)c1 | 16.2 nM
12 | COc1cc(C(=O)N[C@@H](Cc2ccccc2)[C@H](O)CN(CC(C)C)S(=O)(=O)c2ccc([N+](=O)[O-])cc2)cc(OC)c1O | 0.79 nM
13 | COc1cc(C(=O)N[C@@H](Cc2ccccc2)[C@H](O)CN(CC(C)C)S(=O)(=O)c2ccc(F)cc2)cc(OC)c1O | 0.32 nM
14 | CC(C)CN(C[C@@H](O)[C@H](Cc1ccccc1)NC(=O)c1ccc(O)cc1O)S(=O)(=O)c1ccc(F)cc1 | 0.63 nM
15 | CC(C)CN(C[C@@H](O)[C@H](Cc1ccccc1)NC(=O)c1ccc(O)c(O)c1)S(=O)(=O)c1ccc(F)cc1 | 0.075 nM

Tested on: Human immunodeficiency virus 1
Experiment: Antiviral activity against wild-type HIV1 NL4-3 VSV-G pseudotyped virus infected in human SUP-T1 cells assessed as inhibition of late stage viral production pretreated with viral infected SUP-T1 cells for 48 hrs followed by reinfection in TZM-bl cells by luciferase reporter gene assay
Assay type: functional, organism-based
Conditions: Human immunodeficiency virus 1, NL4-3, SUP-T1

Row | Compound | EC50
16 | CC(C)CN(C[C@@H](O)[C@H](Cc1ccccc1)NC(=O)O[C@H]1CO[C@H]2OCC[C@H]21)S(=O)(=O)c1ccc(N)cc1 | 2.5 nM
17 | CC(C)CN(C[C@@H](O)[C@H](Cc1ccccc1)NC(=O)c1cc(O)cc(O)c1)S(=O)(=O)c1ccc(F)cc1 | 740 nM
18 | CC(C)CN(C[C@@H](O)[C@H](Cc1ccccc1)NC(=O)c1ccc(O)c(O)c1)S(=O)(=O)c1ccc(F)cc1 | 360 nM

Tested on: Human immunodeficiency virus 1
Experiment: Antiviral activity against DRV-resistant HIV1 NL4-3 VSV-G pseudotyped virus infected in human SUP-T1 cells assessed as inhibition of late stage viral production pretreated for 48 hrs followed by viral infection and measured after 48 hrs by luciferase assay
Assay type: functional, organism-based
Conditions: Human immunodeficiency virus 1, NL4-3, SUP-T1

Row | Compound | EC50
19 | CC(C)CN(C[C@@H](O)[C@H](Cc1ccccc1)NC(=O)O[C@H]1CO[C@H]2OCC[C@H]21)S(=O)(=O)c1ccc(N)cc1 | 100 nM
20 | CC(C)CN(C[C@@H](O)[C@H](Cc1ccccc1)NC(=O)c1cc(O)cc(O)c1)S(=O)(=O)c1ccc(F)cc1 | 610 nM
21 | CC(C)CN(C[C@@H](O)[C@H](Cc1ccccc1)NC(=O)c1ccc(O)c(O)c1)S(=O)(=O)c1ccc(F)cc1 | 2180 nM

Tested on: HIV1 protease
Experiment: Selectivity index, ratio of CC50 for HEK293T cells to IC50 for inhibition of HIV1 protease expressed in Escherichia coli
Assay type: toxicity
Conditions: human, read-out: Ratio CC50/IC50

Row | Compound | selectivity ratio
22 | CC(C)CN(C[C@@H](O)[C@H](Cc1ccccc1)NC(=O)c1cc(O)cc(O)c1)S(=O)(=O)c1ccc([N+](=O)[O-])cc1 | 1.34e+06
23 | CC(C)CN(C[C@@H](O)[C@H](Cc1ccccc1)NC(=O)c1cc(O)c(O)c(O)c1)S(=O)(=O)c1ccc(C(F)(F)F)cc1 | > 303000
24 | CC(C)CN(C[C@@H](O)[C@H](Cc1ccccc1)NC(=O)c1cc(O)cc(O)c1)S(=O)(=O)c1ccc(F)cc1 | > 4.76e+06
25 | COc1cc(C(=O)N[C@@H](Cc2ccccc2)[C@H](O)CN(CC(C)C)S(=O)(=O)c2ccc([N+](=O)[O-])cc2)cc(OC)c1O | > 127000
26 | COc1cc(C(=O)N[C@@H](Cc2ccccc2)[C@H](O)CN(CC(C)C)S(=O)(=O)c2ccc(F)cc2)cc(OC)c1O | > 312000
27 | CC(C)CN(C[C@@H](O)[C@H](Cc1ccccc1)NC(=O)c1ccc(O)cc1O)S(=O)(=O)c1ccc(F)cc1 | > 159000
28 | CC(C)CN(C[C@@H](O)[C@H](Cc1ccccc1)NC(=O)c1ccc(O)c(O)c1)S(=O)(=O)c1ccc(F)cc1 | 768000

Tested on: not listed separately
Experiment: Selectivity ratio of EC50 for antiviral activity against DRV-resistant HIV1 NL4-3 VSV-G pseudotyped virus infected in human SUP-T1 cells to EC50 for antiviral activity against wild-type HIV1 NL4-3 VSV-G pseudotyped virus infected in human SUP-T1 cells
Assay type: functional, Human immunodeficiency virus 1
Conditions: not given

Row | Compound | Ratio EC50
29 | CC(C)CN(C[C@@H](O)[C@H](Cc1ccccc1)NC(=O)c1cc(O)cc(O)c1)S(=O)(=O)c1ccc(F)cc1 | 0.82
30 | CC(C)CN(C[C@@H](O)[C@H](Cc1ccccc1)NC(=O)c1ccc(O)c(O)c1)S(=O)(=O)c1ccc(F)cc1 | 6.06

Tested on: not listed separately
Experiment: Cytotoxicity against HEK293T cells assessed as reduction in cell viability measured after 24 hrs by CCK8 assay
Assay type: toxicity, cell-based, HEK-293T
Conditions: human

Row | Compound | CC50 at 24 h
31 | CC(C)CN(C[C@@H](O)[C@H](Cc1ccccc1)NC(=O)c1cc(O)cc(O)c1)S(=O)(=O)c1ccc([N+](=O)[O-])cc1 | 86900 nM
32 | CC(C)CN(C[C@@H](O)[C@H](Cc1ccccc1)NC(=O)c1cc(O)c(O)c(O)c1)S(=O)(=O)c1ccc(C(F)(F)F)cc1 | > 100000 nM
33 | CC(C)CN(C[C@@H](O)[C@H](Cc1ccccc1)NC(=O)c1cc(O)cc(O)c1)S(=O)(=O)c1ccc(F)cc1 | > 100000 nM
34 | COc1cc(C(=O)N[C@@H](Cc2ccccc2)[C@H](O)CN(CC(C)C)S(=O)(=O)c2ccc([N+](=O)[O-])cc2)cc(OC)c1O | > 100000 nM
35 | COc1cc(C(=O)N[C@@H](Cc2ccccc2)[C@H](O)CN(CC(C)C)S(=O)(=O)c2ccc(F)cc2)cc(OC)c1O | > 100000 nM
36 | CC(C)CN(C[C@@H](O)[C@H](Cc1ccccc1)NC(=O)c1ccc(O)cc1O)S(=O)(=O)c1ccc(F)cc1 | > 100000 nM
37 | CC(C)CN(C[C@@H](O)[C@H](Cc1ccccc1)NC(=O)c1ccc(O)c(O)c1)S(=O)(=O)c1ccc(F)cc1 | 57600 nM

Tested on: Human immunodeficiency virus 1
Experiment: Antiviral activity against HIV1 NL4-3 VSV-G pseudotyped virus infected in human SUP-T1 cells assessed as inhibition of late stage viral production at 10 uM pretreated for 48 hrs followed by viral infection and measured after 48 hrs by luciferase assay relative to control
Assay type: functional
Conditions: Human immunodeficiency virus 1, NL4-3, SUP-T1, time 96 hrs

Row | Compound | inhibition at 10 µM
38 | CC(C)CN(C[C@@H](O)[C@H](Cc1ccccc1)NC(=O)c1ccc(Cl)cc1O)S(=O)(=O)c1ccc(F)cc1 | 97.4%
39 | CC(C)CN(C[C@@H](O)[C@H](Cc1ccccc1)NC(=O)c1cc(O)cc(O)c1)S(=O)(=O)c1ccc(F)cc1 | 100%
40 | COc1cc(C(=O)N[C@@H](Cc2ccccc2)[C@H](O)CN(CC(C)C)S(=O)(=O)c2ccc(F)cc2)cc(OC)c1O | 84.2%
41 | CC(C)CN(C[C@@H](O)[C@H](Cc1ccccc1)NC(=O)c1ccc(O)cc1O)S(=O)(=O)c1ccc(F)cc1 | 99.4%
42 | CC(C)CN(C[C@@H](O)[C@H](Cc1ccccc1)NC(=O)c1ccc(O)c(O)c1)S(=O)(=O)c1ccc(F)cc1 | 100%
